For 27 molecules, inhibition and pest or weed control results are on record in US20210101874A1, “MICROBIOCIDAL OXADIAZOLE DERIVATIVES” (SYNGENTA PARTICIPATIONS AG, priority 2017, published 2021).

The structures appear in SMILES notation. A value given as a limit tells only on which side of the number the result lay.

The test system of assay [1] is Glomerella lagenarium (Colletotrichum lagenarium). Kind of assay: Glomerella lagenarium (Colletotrichum lagenarium) liquid culture / cucumber / preventative (anthracnose). The assay is classed as cell-based. Particulars: Colletotrichum orbiculare; 20 ppm in the applied formulation; conidia in PDB nutrient broth, 24° C.; 3 to 4 days after application; compared to untreated; read-out: disease control (inhibition of growth measured photometrically). The method, then: Mycelia fragments or conidia suspensions of a fungus prepared either freshly from liquid cultures of the fungus or from cryogenic storage, are directly mixed into nutrient broth. DMSO solutions of the test compound (max. 10 mg/ml) are diluted with 0.025% Tween20 by a factor of 50 and 10 µl of this solution is pipetted into a microtiter plate (96-well format). The nutrient broth containing the fungal spores/mycelia fragments is then added to give an end concentration of the tested compound. The test plates are incubated in the dark at 24° C. and 96% relative humidity. The inhibition of fungal growth is determined photometrically after 2 to 7 days, depending on the pathosystem, and percent antifungal activity relative to the untreated check is calculated. Conidia of the fungus from cryogenic storage are directly mixed into nutrient broth (PDB—potato dextrose broth). After placing a (DMSO) solution of test compound into a microtiter plate (96-well format), the nutrient broth containing the fungal spores is added. The test plates are incubated at 24° C. and the inhibition of growth is measured photometrically 3 to 4 days after application. The following compounds at 20 ppm in the applied formulation give at least 80% disease control in this test when compared to untreated control under the same conditions, which show extensive disease development.

The subject of assay [2] is Puccinia recondita f. sp. Tritici. Kind of assay: Puccinia recondita f. sp. tritici / wheat / leaf disc preventative (brown rust). The assay is classed as in vivo. The settings on record: foliar, 200 ppm in the applied formulation, wheat leaf segments cv. Kanzler, inoculated 1 day after application, compared to untreated, assessed 7 to 9 days after application, read-out: disease control. The protocol: Leaf disks or leaf segments of various plant species are cut from plants grown in a greenhouse. The cut leaf disks or segments are placed in multiwell plates (24-well format) onto water agar. The leaf disks are sprayed with a test solution before (preventative) or after (curative) inoculation. Compounds to be tested are prepared as DMSO solutions (max. 10 mg/ml) which are diluted to the appropriate concentration with 0.025% Tween20 just before spraying. The inoculated leaf disks or segments are incubated under defined conditions (temperature, relative humidity, light, etc.) according to the respective test system. A single evaluation of disease level is carried out 3 to 14 days after inoculation, depending on the pathosystem. Percent disease control relative to the untreated check leaf disks or segments is then calculated. Wheat leaf segments cv. Kanzler were placed on agar in multiwell plates (24-well format) and sprayed with the formulated test compound diluted in water. The leaf disks were inoculated with a spore suspension of the fungus 1 day after application. The inoculated leaf segments were incubated at 19° C. and 75% relative humidity (rh) under a light regime of 12 hours light/12 hours darkness in a climate cabinet and the activity of a compound was assessed as percent disease control compared to untreated when an appropriate level of disease damage appears in untreated check leaf segments (7 to 9 days after application). The following compounds at 200 ppm in the applied formulation give at least 80% disease control in this test when compared to untreated control leaf disks under the same conditions, which show extensive disease development.

For the molecule `O=S(=O)(Cc1ccccc1)N(Cc1ccc(-c2noc(C(F)(F)F)n2)cc1)C1CC1` [Compound 1.4, N-cyclopropyl-1-phenyl-N-[[4-[5-(trifluoromethyl)-1,2,4-oxadiazol-3-yl]phenyl]methyl] methanesulfonamide], the inhibition at 20 ppm in assay [1] was at least 80%.
Turning to `CCNS(=O)(=O)N(Cc1ccc(-c2noc(C(F)(F)F)n2)cc1)OC` [Compound 1.18, 3-[4-[[ethylsulfamoyl (methoxy)amino]methyl]phenyl]-5-(trifluoromethyl)-1,2,4-oxadiazole], in assay [1], the inhibition at 20 ppm was at least 80%. Besides, the pest or weed control at 200 ppm in assay [2] is at least 80%.
On to `CCCNS(=O)(=O)N(Cc1ccc(-c2noc(C(F)(F)F)n2)cc1)OC` [Compound 1.22, 3-[4-[[methoxy (propylsulfamoyl)amino]methyl]phenyl]-5-(trifluoromethyl)-1,2,4-oxadiazole], for which the inhibition at 20 ppm in assay [1] is at least 80%. In addition, the pest or weed control at 200 ppm in assay [2] is at least 80%.
Turning to `CCN(Cc1ccc(-c2noc(C(F)(F)F)n2)cc1)S(=O)(=O)c1ccccc1` [Compound 1.24, N-ethyl-N-[[4-[5-(trifluoromethyl)-1,2,4-oxadiazol-3-yl]phenyl]methyl] benzenesulfonamide], the inhibition at 20 ppm in assay [1] was at least 80%.
As for `CCCN(Cc1ccc(-c2noc(C(F)(F)F)n2)cc1)S(=O)(=O)CCC` [Compound 1.26, N-propyl-N-[[4-[5-(trifluoromethyl)-1,2,4-oxadiazol-3-yl]phenyl]methyl] propane-1-sulfonamide], the inhibition at 20 ppm in assay [1] was at least 80%.
The same measure, in the same setting: next, `CCN(Cc1ccc(-c2noc(C(F)(F)F)n2)cc1)S(=O)(=O)CC1CC1(Cl)Cl` (stereo not drawn) [Compound 1.31, 1-(2,2-dichlorocyclopropyl)-N-ethyl-N-[[4-[5-(trifluoromethyl)-1,2,4-oxadiazol-3-yl]phenyl]methyl] methanesulfonamide]: at least 80%.
On to `CCN(Cc1ccc(-c2noc(C(F)(F)F)n2)cc1)S(=O)(=O)N1CCCC1` [Compound 1.32, N-ethyl-N-[[4-[5-(trifluoromethyl)-1,2,4-oxadiazol-3-yl]phenyl]methyl] pyrrolidine-1-sulfonamide], for which the inhibition at 20 ppm in assay [1] was at least 80%. In addition, in assay [2], the pest or weed control at 200 ppm is at least 80%.
On to `COCCS(=O)(=O)N(Cc1ccc(-c2noc(C(F)(F)F)n2)cc1)OC` [Compound 1.40, N,2-dimethoxy-N-[[4-[5-(trifluoromethyl)-1,2,4-oxadiazol-3-yl]phenyl]methyl] ethanesulfonamide], for which the inhibition at 20 ppm in assay [1] is at least 80%.
Still for that read-out and setting: in the case of `CCCCS(=O)(=O)N(C)Cc1ccc(-c2noc(C(F)(F)F)n2)cc1` [Compound 1.55, N-methyl-N-[[4-[5-(trifluoromethyl)-1,2,4-oxadiazol-3-yl]phenyl]methyl] butane-1-sulfonamide] it was at least 80%.
`COC(=O)CS(=O)(=O)N(Cc1ccc(-c2noc(C(F)(F)F)n2)cc1)OC` [Compound 1.57, methyl 2-[methoxy-[[4-[5-(trifluoromethyl)-1,2,4-oxadiazol-3-yl]phenyl]methyl]sulfamoyl]acetate]: the pest or weed control at 200 ppm in assay [2] was at least 80%.
Take `CNS(=O)(=O)N(Cc1ccc(-c2noc(C(F)(F)F)n2)cc1)OC` [Compound 1.58, 3-[4-[[methoxy(methylsulfamoyl)amino]methyl]phenyl]-5-(trifluoromethyl)-1,2,4-oxadiazole]: the inhibition at 20 ppm in assay [1] was at least 80%.
Regarding `CCCN(Cc1ccc(-c2noc(C(F)(F)F)n2)cc1)S(=O)(=O)CCC(=O)OC` [Compound 1.72, methyl 3-[propyl-[[4-[5-(trifluoromethyl)-1,2,4-oxadiazol-3-yl]phenyl]methyl]sulfamoyl]propanoate], the inhibition at 20 ppm in assay [1] was at least 80%.
On to `C/C=C/S(=O)(=O)N(CCC)Cc1ccc(-c2noc(C(F)(F)F)n2)cc1` [Compound 1.75, (E)-N-propyl-N-[[4-[5-(trifluoromethyl)-1,2,4-oxadiazol-3-yl]phenyl]methyl] prop-1-ene-1-sulfonamide], for which the inhibition at 20 ppm in assay [1] was at least 80%.
`CCCN(Cc1ccc(-c2noc(C(F)(F)F)n2)cc1)S(=O)(=O)Cc1ccccc1` [Compound 1.77, 1-phenyl-N-propyl-N-[[4-[5-(trifluoromethyl)-1,2,4-oxadiazol-3-yl]phenyl]methyl] methanesulfonamide]: the inhibition at 20 ppm in assay [1] was at least 80%.
Same read-out and setting: in the case of `CCCN(Cc1ccc(-c2noc(C(F)(F)F)n2)cc1)S(=O)(=O)CC` [Compound 1.78, N-propyl-N-[[4-[5-(trifluoromethyl)-1,2,4-oxadiazol-3-yl]phenyl]methyl] ethanesulfonamide] it was at least 80%.
For the molecule `CON(Cc1ccc(-c2noc(C(F)(F)F)n2)cc1)S(=O)(=O)c1ccn(C)n1` [Compound 1.88, N-methoxy-1-methyl-N-[[4-[5-(trifluoromethyl)-1,2,4-oxadiazol-3-yl]phenyl]methyl] pyrazole-3-sulfonamide], the pest or weed control at 200 ppm in assay [2] is at least 80%.
For the molecule `C=CCS(=O)(=O)N(Cc1ccc(-c2noc(C(F)(F)F)n2)cc1)OC` [Compound 1.92, N-methoxy-N-[[4-[5-(trifluoromethyl)-1,2,4-oxadiazol-3-yl]phenyl]methyl] prop-2-ene-1-sulfonamide], in assay [1], the inhibition at 20 ppm is at least 80%.
The same measure, in the same setting: in the case of `C/C=C/S(=O)(=O)N(Cc1ccc(-c2noc(C(F)(F)F)n2)cc1)OC` [Compound 1.94, (E)-N-methoxy-N-[[4-[5-(trifluoromethyl)-1,2,4-oxadiazol-3-yl]phenyl]methyl] prop-1-ene-1-sulfonamide] it was at least 80%; in that of `CC(C)N(Cc1ccc(-c2noc(C(F)(F)F)n2)cc1)S(=O)(=O)Cc1ccccc1` [Compound 1.99, N-isopropyl-1-phenyl-N-[[4-[5-(trifluoromethyl)-1,2,4-oxadiazol-3-yl]phenyl]methyl) methanesulfonamide], at least 80%.
On the same count and under the same terms, next, `COC(=O)CS(=O)(=O)NCc1ccc(-c2noc(C(F)(F)F)n2)cc1` [Compound 2.11, methyl 2-[[4-[5-(trifluoromethyl)-1,2,4-oxadiazol-3-yl]phenyl]methyl-sulfamoyl] acetate]: at least 80%.
The same measure, in the same setting: next, `COC(=O)CS(=O)(=O)NCc1ccc(-c2noc(C(F)(F)F)n2)c(F)c1` [Compound 2.20, methyl 2-[[3-fluoro-4-[5-(trifluoromethyl)-1,2,4-oxadiazol-3-yl]phenyl]methyl-sulfamoyl] acetate]: at least 80%.
In the case of `CCCCS(=O)(=O)NCc1ccc(-c2noc(C(F)(F)F)n2)cc1F` [Compound 2.23, N-[[2-fluoro-4-[5-(trifluoromethyl)-1,2,4-oxadiazol-3-yl]phenyl]methyl] butane-1-sulfonamide], in assay [1], the inhibition at 20 ppm is at least 80%.
Still for that read-out and setting: in the case of `Cc1ccc(S(=O)(=O)NCc2ccc(-c3noc(C(F)(F)F)n3)c(F)c2)s1` [Compound 3.15, N-[[3-fluoro-4-[5-(trifluoromethyl)-1,2,4-oxadiazol-3-yl]phenyl]methyl]-5-methyl-thiophene-2-sulfonamide] it was at least 80%.
For the molecule `O=S(=O)(Cc1ccccc1)NCc1ccc(-c2noc(C(F)(F)F)n2)c(F)c1` [Compound 3.22, N-[[3-fluoro-4-[5-(trifluoromethyl)-1,2,4-oxadiazol-3-yl]phenyl]methyl]-1-phenyl-methanesulfonamide], in assay [2], the pest or weed control at 200 ppm was at least 80%.
With `O=S(=O)(Cc1ccccc1)NCc1ccc(-c2noc(C(F)(F)F)n2)cc1F` [Compound 3.23, N-[[2-fluoro-4-[5-(trifluoromethyl)-1,2,4-oxadiazol-3-yl]phenyl]methyl]-1-phenyl-methanesulfonamide], the pest or weed control at 200 ppm in assay [2] was at least 80%.
As to `Cc1ccc(S(=O)(=O)NCc2ccc(-c3noc(C(F)(F)F)n3)cc2F)s1` [Compound 3.25, N-[[2-fluoro-4-[5-(trifluoromethyl)-1,2,4-oxadiazol-3-yl]phenyl]methyl]-5-methyl-thiophene-2-sulfonamide], the inhibition at 20 ppm in assay [1] is at least 80%.
Turning to `O=S(=O)(NCc1ccc(-c2noc(C(F)(F)F)n2)cc1F)c1ccccc1` [Compound 3.32, N-[[2-fluoro-4-[5-(trifluoromethyl)-1,2,4-oxadiazol-3-yl]phenyl]methyl] benzenesulfonamide], the pest or weed control at 200 ppm in assay [2] is at least 80%.

As a reminder, the inhibition is the change of the read-out against control, counted positive when it falls.
